Experimental findings from patent US20250127801A1, “BRIDGED TRICYCLIC CARBAMOYLPYRIDONE COMPOUNDS AND USES THEREOF” (priority 2023, published 2025) are described below.

Molecules are shown by their SMILES. pEC50: −log10 of the molar value. Values after ≈ are worked out from the molar mass of the structure shown. Read-outs that look alike come from different tables or passages of the source.

In one data set the test system is HIV-1 (IIIB). The experiment in a line: microbe, parasite or virus in culture. Type of data set: cell-based. To be noted: for EC50: Human immunodeficiency virus 1, IIIB, MT4, 120 h, read-out: MT4 EC50 (nM).
The next data set is described as follows: physchem. As to conditions: 23 °C, thermodynamic from solid; for solubility thermodynamic: fassif.
Another data set is described as follows: in vitro. To be noted: human.

For the molecule `CC1=NO[C@@]2(CC[C@H](C)N3C[C@H]2n2cc(C(=O)NCc4ccc(F)cc4F)c(=O)c(OCOC(=O)N(C)c4ncccc4CN(C)C(=O)OCOP(=O)(O)O)c2C3=O)C1` [Compound 62, (phosphonooxy)methyl ((2-((((((3′S,5S,7′R)-10′-((2,4-difluorobenzyl)carbamoyl)-3,3′-dimethyl-1′,11′-dioxo-1′,4′,5′,11′-tetrahydro-3′H,4H,7′H-spiro[isoxazole-5,6′-[2,7]methanopyrido[1,2-a][1,4]diazonin]-12′-yl)oxy)methoxy)carbonyl)(methyl)amino)pyridin-3-yl)methyl)(methyl)carbamate], the EC50 with HIV-1 (IIIB) turned out to be 1.73 nM. This molecule had a solubility (thermodynamic) in the data set “physchem” of 5030 µg/mL (≈ 5.93 mM). In “in vitro”, this molecule registered a CC50 of 14.6 µM.

Take `CC1=NO[C@@]2(CC[C@H](C)N3C[C@H]2n2cc(C(=O)NCc4ccc(F)cc4F)c(=O)c(OCOC(=O)[C@@H]4CC[C@@H]4CN(CC(=O)O)C(=O)OCOP(=O)(O)O)c2C3=O)C1` [Compound 80, N-(((1S,2R)-2-(((((3′S,5S,7′R)-10′-((2,4-difluorobenzyl)carbamoyl)-3,3′-dimethyl-1′,11′-dioxo-1′,4′,5′,11′-tetrahydro-3′H,4H,7′H-spiro[isoxazole-5,6′-[2,7]methanopyrido[1,2-a][1,4]diazonin]-12′-yl)oxy)methoxy)carbonyl)cyclobutyl)methyl)-N-(((phosphonooxy)methoxy)carbonyl)glycine]: the EC50 in the data set with HIV-1 (IIIB) amounted to 0.785 nM. Besides, in “physchem”, the thermodynamic solubility came out at 4150 µg/mL (≈ 4.94 mM). In “in vitro”, this molecule came in with a CC50 of 10.1 µM.

Take `CC1=NO[C@@]2(CC[C@H](C)N3C[C@H]2n2cc(C(=O)NCc4ccc(F)cc4F)c(=O)c(OCOC(=O)CC(C)(C)c4c(CC(=O)N5CCC[C@@H]5C(=O)O)cc(C)cc4OP(=O)(O)O)c2C3=O)C1` [Compound 57, (2-(2-(4-((((3′S,5S,7′R)-10′-((2,4-difluorobenzyl)carbamoyl)-3,3′-dimethyl-1′,11′-dioxo-1′,4′,5′,11′-tetrahydro-3′H,4H,7′H-spiro[isoxazole-5,6′-[2,7]methanopyrido[1,2-a][1,4]diazonin]-12′-yl)oxy)methoxy)-2-methyl-4-oxobutan-2-yl)-5-methyl-3-(phosphonooxy)phenyl)acetyl)-D-proline]: the EC50 in the data set with HIV-1 (IIIB) is 2.55 nM. In the data set “physchem”, this molecule had a solubility (thermodynamic) of 5460 µg/mL (≈ 5.79 mM). This molecule yielded a CC50 in the data set “in vitro” of 15 µM.

With `COC(=O)CN(Cc1cccnc1N(C)C(=O)Oc1c2n(cc(C(=O)NCc3ccc(F)cc3F)c1=O)[C@@H]1CN(C2=O)[C@@H](C)CC[C@]12CC(C)=NO2)C(=O)OCOP(=O)(O)O` [Compound 34, methyl N-((2-(((((3′S,5S,7′R)-10′-((2,4-difluorobenzyl)carbamoyl)-3,3′-dimethyl-1′,11′-dioxo-1′,4′,5′,11′-tetrahydro-3′H,4H,7′H-spiro[isoxazole-5,6′-[2,7]methanopyrido[1,2-a][1,4]diazonin]-12′-yl)oxy)carbonyl)(methyl)amino)pyridin-3-yl)methyl)-N-(((phosphonooxy)methoxy)carbonyl)glycinate], the EC50 with HIV-1 (IIIB) stood at 1.4 nM. This molecule displayed a solubility (thermodynamic) in the data set “physchem” of 4920 µg/mL (≈ 5.62 mM). In “in vitro”, the CC50 is 12.8 µM.

As for `CC1=NO[C@@]2(CC[C@H](C)N3C[C@H]2n2cc(C(=O)NCc4ccc(F)cc4F)c(=O)c(OCOC(=O)OCC4(COP(=O)(O)O)COC4)c2C3=O)C1` [Compound 56, (((3′S,5S,7′R)-10′-((2,4-difluorobenzyl)carbamoyl)-3,3′-dimethyl-1′,11′-dioxo-1′,4′,5′,11′-tetrahydro-3′H,4H,7′H-spiro[isoxazole-5,6′-[2,7]methanopyrido[1,2-a][1,4]diazonin]-12′-yl)oxy)methyl ((3-((phosphonooxy)methyl)oxetan-3-yl)methyl) carbonate], the pEC50 with HIV-1 (IIIB) (Human immunodeficiency virus 1, MT4, 120 h, HIV-1 (IIIB) replication in MT-4 cells, 5 days incubation, Cell Titer Glo, read-out: MT4 EC50) was 8.62. The thermodynamic solubility at 24 h in “physchem” (FaSSIF) turned out to be 3560 µg/mL (≈ 4.81 mM). For the same molecule, in “in vitro” (uninfected MT-4 cells), the CC50 at 5 days is 12.8 µM.

For orientation: EC50 means the concentration giving half of the maximal effect. Usually solubility (thermodynamic) stands for the concentration in solution at equilibrium with solid. Broadly, the pEC50 is the EC50 on a negative log10 scale, so that one unit is a factor of ten.
